Results: US6911531B2, “Antibodies directed towards a novel human EP prostaglandin receptor” (Allergan, Inc., priority 1994, dated 2005)

What was measured:
human HP4 receptor [1] = molecular target: T1, human HP4 receptor (Homo sapiens, UniProt P43116); test: Competition of [3H]-PGE2 binding to membranes of HP4-transfected COS-7 cells; conditions: [3H]-PGE2 5 nM, 100 μg protein/tube, 60 minutes at room temperature; FIG. 1A-1C
T1 construct: a plasmid with a complete open reading frame in the sense orientation was isolated; expressed in transfected cells; host or cells: COS-7 cells (ATCC CRL 1651), transient DEAE-dextran transfection with pBC/HP4
Protocol: (§1) Monolayers of COS-7 cells (ATCC CRL 1651; 70-80% confluent) were rinsed with Phosphate Buffered Saline (PBS, Ca/Mg-free) in 150×25 mm culture dishes. Ten ml transfection mix, consisting of 5 μ/ml plasmid DNA and 0.5 mg/ml DEAE-dextran in PBS, was added to each dish and cells were incubated for 30 min at 37° C. Nine ml of the solution was removed from each dish followed by the addition of 10 ml of […] chloroquine in Dulbecco's Modified Eagle Medium (DMEM)/5% fetal bovine serum (FBS). The cells were incubated for 2.5 hr at 37° C., the solution aspirated and 10 ml of 10% dimethyl sulfoxide (DMSO) in DMEM/5% FBS was added. After a 2.5 minute incubation at 37° C., the solution was aspirated and 30 ml DMEM/5% FBS was added. The cells were incubated at 37° C. with media changes at 24 and 48 hours. After 72 hours, the media was aspirated and the cells were scraped into cold TME buffer (50 mM Tris-HCl, pH 7.4, 10 mM MgCl2, 1 mM EDTA). The dishes were rinsed with cold TME buffer and the cells combined and placed on ice.
Transfected COS-7 cells were homogenized for 30 seconds at approximately 80% power with a Brinkman PT 10/35 Polytron homogenizer. The resulting homogenate was centrifuged at 19,000 rpm for 20 minutes at 4° C. using a Sorvall SS-34 rotor. The membrane pellet was resuspended in cold TME buffer (1 ml per original dish), frozen in liquid nitrogen and stored at −80° C.
Membrane pellets were then diluted in ice-cold 50 mM Tris-HCl buffer at pH 7.4 using a sonicator set at 50 watts. Membrane suspensions (100 μl) were then added to each assay tube to start the binding reaction. Final concentrations of the competition assay were as follows: [^3H]-PGE2, 5 nM; 100 μg protein/tube in a total volume of 200 μl. Increasing concentrations of compounds to be tested for competitively inhibiting binding were incubated for 60 minutes at room temperature. Contents were aspirated onto a presoaked ice-cold Whatman GF/B filter using a Brandel Cell Harvester and washed three times with ice-cold assay buffer. The filters were dried, placed in scintillation fluid and counted.

[2] = Nials et al., 1993; cited from earlier work
human neutrophils = conditions: Nials et al., 1993; cited from earlier work
human myometrium = conditions: Yeardley et al., 1992; cited from earlier work
human HP4 receptor [3] = molecular target: T1, human HP4 receptor; test: cAMP assay on HP4-transfected COS-7 cells; assay type: cell-based; conditions: FIG. 2
Protocol: as §1
HP4-transfected COS-7 cells, prepared as described in Example 2, were cultured in DMEM containing 10% FCS, 100 units/ml penicillin, 100 μ/ml streptomycin. […] Cells were trypsinized and resuspended in a small volume of medium (2-3 ml), counted using a hemocytometer and diluted to 7-8×10^4 cells/ml (DMEM/5% FCS). […] The amount of cAMP was quantified as follows. […]

putative EP2 receptor = conditions: cloned receptor of An et al. 1993 / Honda et al. 1993; cited from earlier work

T1 sequence (P43116 whole entry): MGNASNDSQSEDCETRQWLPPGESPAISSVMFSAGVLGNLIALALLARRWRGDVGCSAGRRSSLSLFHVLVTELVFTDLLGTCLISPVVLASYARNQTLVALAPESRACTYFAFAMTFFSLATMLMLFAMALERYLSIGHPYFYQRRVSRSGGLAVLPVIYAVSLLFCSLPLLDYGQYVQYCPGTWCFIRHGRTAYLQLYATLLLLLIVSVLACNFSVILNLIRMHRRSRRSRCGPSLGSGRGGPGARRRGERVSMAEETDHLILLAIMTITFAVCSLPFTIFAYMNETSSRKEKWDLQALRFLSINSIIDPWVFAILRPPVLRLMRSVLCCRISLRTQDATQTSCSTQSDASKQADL

Compound	competition of [3H]-PGE2 binding (human HP4 receptor [1])	also measured
CCCCC[C@H](O)/C=C/[C@H]1CCC(=O)[C@@H]1CCCCCCC(=O)O [11-deoxy PGE1]	exhibited competitive activity	–
CCCCC(C)(C)[C@H](O)/C=C/[C@H]1[C@H](O)CC(=O)[C@@H]1C/C=C\CCCC(=O)O [16,16-dimethyl PGE2]	active	–
C[C@@H](O)CCC[C@H](O)/C=C/[C@H]1[C@H](O)CC(=O)[C@@H]1C/C=C\CCCC(=O)O [19(R)-hydroxy PGE2]	exhibited competitive activity	–
CCCCCC(O)c1ccc(C2CCC(=O)C2CCCCCCC(=O)O)cc1 (stereo not shown) [AH13205]	displaced	bronchodilation [2]: induce bronchodilation; release of the inflammatory mediator leukotriene B4 (human neutrophils): inhibit; spontaneous contraction of human myometrium (human myometrium): inhibits
O=C(O)CCCCCC[C@H]1C(=O)CC[C@@H]1/C=C/[C@@H](O)COc1ccccc1 [MB 28767]	only slightly active	–
CCCCC[C@H](O)/C=C/[C@H]1[C@H](O)CC(=O)[C@@H]1CCCCCCCO [PGE1-1-OH]	only slightly active	–
CCCCC[C@H](O)/C=C/[C@H]1[C@H](O)CC(=O)[C@@H]1CCCCCCC(=O)O [PGE1]	strongest competitors	–
CCCCC[C@H](O)/C=C/[C@H]1[C@H](O)CC(=O)[C@@H]1C/C=C\CCCC(=O)O [PGE2, Prostaglandin E2]	strongest competitors	cAMP levels (human HP4 receptor [3]; IBMX, 3 minutes at 37° C.): significantly increased; potency order of stimulation of cAMP formation (human HP4 receptor [3]; order PGE2, AH13205, butaprost, PGE1-1-OH): potently stimulate cAMP formation
CS(=O)(=O)NC(=O)CCC/C=C\C[C@H]1C(=O)C[C@@H](O)[C@@H]1/C=C/[C@@H](O)COc1ccccc1 [Sulprostone]	inactive	–
CCCC1([C@H](O)C/C=C/[C@H]2[C@H](O)CC(=O)[C@@H]2CCCCCCC(=O)OC)CCC1 [butaprost]	displaced	activity at the putative EP2 receptor clone (putative EP2 receptor): inactive
